According to PubChem BioAssay (NCI):
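48-hour exposure; five concentrations; linearly interpolated endpoints. The concentration for 50% growth inhibition is given as GI50. At the TGI there is no net growth.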

How the values were obtained:
Experiment in all cases: DTP human tumour cell line panel, 48 h; in the data active means GI50 below about 0.43 µM; inactive means the rest
HCC-2998 colon = tested on: HCC-2998 colon
PC-3 prostate = tested on: PC-3 prostate
MDA-MB-435 = tested on: MDA-MB-435
786-0 renal = tested on: 786-0 renal
UACC-257 melanoma = tested on: UACC-257 melanoma
OVCAR-4 ovarian = tested on: OVCAR-4 ovarian
SF-295 CNS = tested on: SF-295 CNS
MALME-3M melanoma = tested on: MALME-3M melanoma
RXF 393 renal = tested on: RXF 393 renal
HS 578T breast = tested on: HS 578T breast
SF-268 CNS = tested on: SF-268 CNS
SF-539 CNS = tested on: SF-539 CNS
KM12 colon = tested on: KM12 colon
HCT-15 colon = tested on: HCT-15 colon
SK-OV-3 ovarian = tested on: SK-OV-3 ovarian
OVCAR-3 ovarian = tested on: OVCAR-3 ovarian
NCI-H23 lung = tested on: NCI-H23 lung
CCRF-CEM leukemia = tested on: CCRF-CEM leukemia
LOX IMVI melanoma = tested on: LOX IMVI melanoma
SK-MEL-5 melanoma = tested on: SK-MEL-5 melanoma
HOP-92 NSCLC = tested on: HOP-92 NSCLC
IGROV1 ovarian = tested on: IGROV1 ovarian
UACC-62 melanoma = tested on: UACC-62 melanoma
HCT-116 colon = tested on: HCT-116 colon
MDA-MB-468 breast = tested on: MDA-MB-468 breast
BT-549 breast = tested on: BT-549 breast
SNB-19 CNS = tested on: SNB-19 CNS
HL-60(TB) leukemia = tested on: HL-60(TB) leukemia
A549 NSCLC = tested on: A549 NSCLC
RPMI-8226 leukemia = tested on: RPMI-8226 leukemia
EKVX NSCLC = tested on: EKVX NSCLC
DU-145 prostate = tested on: DU-145 prostate
OVCAR-5 ovarian = tested on: OVCAR-5 ovarian
SK-MEL-2 melanoma = tested on: SK-MEL-2 melanoma
MOLT-4 leukemia = tested on: MOLT-4 leukemia
COLO 205 colon = tested on: COLO 205 colon
CAKI-1 renal = tested on: CAKI-1 renal
TK-10 renal = tested on: TK-10 renal
NCI/ADR-RES ovarian = tested on: NCI/ADR-RES ovarian
SK-MEL-28 melanoma = tested on: SK-MEL-28 melanoma
HT29 colon = tested on: HT29 colon
NCI-H460 lung = tested on: NCI-H460 lung
ACHN renal = tested on: ACHN renal
NCI-H522 lung = tested on: NCI-H522 lung
SW-620 colon = tested on: SW-620 colon
T-47D breast = tested on: T-47D breast
K-562 leukemia = tested on: K-562 leukemia
U251 CNS = tested on: U251 CNS
HOP-62 NSCLC = tested on: HOP-62 NSCLC
M14 melanoma = tested on: M14 melanoma
OVCAR-8 ovarian = tested on: OVCAR-8 ovarian
SR leukemia = tested on: SR leukemia
SN12C renal = tested on: SN12C renal
SNB-75 CNS = tested on: SNB-75 CNS
A498 renal = tested on: A498 renal
UO-31 renal = tested on: UO-31 renal
MDA-MB-231 breast = tested on: MDA-MB-231 breast
NCI-H226 lung = tested on: NCI-H226 lung
MCF7 breast = tested on: MCF7 breast

CCOC(=O)c1ccc(NC(=S)NC(=O)c2ccc(NC(=O)C(C)C)cc2OC)cc1
53.2 µM: TGI (MDA-MB-231 breast)
71.6 µM: TGI (OVCAR-4 ovarian)
50 µM: TGI (CCRF-CEM leukemia)
46 µM: TGI (U251 CNS)
> 100 µM: TGI (HCC-2998 colon) | TGI (MDA-MB-435) | TGI (UACC-257 melanoma) | TGI (HS 578T breast) | TGI (SF-268 CNS) | TGI (SF-539 CNS) | TGI (KM12 colon) | TGI (HCT-15 colon) | TGI (SK-OV-3 ovarian) | TGI (OVCAR-3 ovarian) | TGI (LOX IMVI melanoma) | TGI (IGROV1 ovarian) | TGI (A549 NSCLC) | TGI (DU-145 prostate) | TGI (OVCAR-5 ovarian) | TGI (SK-MEL-28 melanoma) | TGI (HT29 colon) | TGI (NCI-H460 lung) | TGI (ACHN renal) | TGI (NCI-H522 lung) | TGI (SW-620 colon) | TGI (K-562 leukemia) | TGI (OVCAR-8 ovarian) | TGI (SR leukemia) | TGI (SN12C renal) | TGI (A498 renal)
36.8 µM: TGI (NCI-H226 lung)
51.5 µM: TGI (HCT-116 colon)
53.7 µM: TGI (UACC-62 melanoma)
66.9 µM: TGI (SNB-19 CNS)
79.3 µM: TGI (UO-31 renal)
63.1 µM: TGI (M14 melanoma)
32.6 µM: TGI (MALME-3M melanoma)
37.2 µM: TGI (MCF7 breast)
44.8 µM: TGI (HOP-92 NSCLC)
76.6 µM: TGI (TK-10 renal)
5.97 µM: TGI (MOLT-4 leukemia)
42.3 µM: TGI (COLO 205 colon)
80.8 µM: TGI (CAKI-1 renal)
72.3 µM: TGI (HOP-62 NSCLC)
99.8 µM: TGI (EKVX NSCLC)
62.9 µM: TGI (SK-MEL-2 melanoma)
45.4 µM: TGI (SF-295 CNS)
inactive: GI50 (HCC-2998 colon) 20.3 µM | GI50 (PC-3 prostate) 6.41 µM | GI50 (MDA-MB-435) 15.2 µM | GI50 (786-0 renal) 21.9 µM | GI50 (UACC-257 melanoma) 12.5 µM | GI50 (OVCAR-4 ovarian) 9.21 µM | GI50 (SF-295 CNS) 8.33 µM | GI50 (MALME-3M melanoma) 4.28 µM | GI50 (RXF 393 renal) 15.7 µM | GI50 (HS 578T breast) 31.7 µM | GI50 (SF-268 CNS) 20.7 µM | GI50 (SF-539 CNS) 27.7 µM | GI50 (KM12 colon) 6.37 µM | GI50 (HCT-15 colon) 4.24 µM | GI50 (SK-OV-3 ovarian) 35.6 µM | GI50 (OVCAR-3 ovarian) 15.3 µM | GI50 (NCI-H23 lung) 3.71 µM | GI50 (CCRF-CEM leukemia) 2.93 µM | GI50 (LOX IMVI melanoma) 11.6 µM | GI50 (SK-MEL-5 melanoma) 2.14 µM | GI50 (HOP-92 NSCLC) 13.8 µM | GI50 (IGROV1 ovarian) 19.3 µM | GI50 (UACC-62 melanoma) 11.7 µM | GI50 (HCT-116 colon) 3.99 µM | GI50 (MDA-MB-468 breast) 2.04 µM | GI50 (BT-549 breast) 1.97 µM | GI50 (SNB-19 CNS) 14.8 µM | GI50 (HL-60(TB) leukemia) 2.45 µM | GI50 (A549 NSCLC) 33.4 µM | GI50 (RPMI-8226 leukemia) 2.66 µM | GI50 (EKVX NSCLC) 15.7 µM | GI50 (DU-145 prostate) 34.7 µM | GI50 (OVCAR-5 ovarian) 29.7 µM | GI50 (SK-MEL-2 melanoma) 14.9 µM | GI50 (MOLT-4 leukemia) 2.22 µM | GI50 (COLO 205 colon) 15.5 µM | GI50 (CAKI-1 renal) 17.8 µM | GI50 (TK-10 renal) 22.3 µM | GI50 (NCI/ADR-RES ovarian) 12.6 µM | GI50 (SK-MEL-28 melanoma) 14 µM | GI50 (HT29 colon) 39.3 µM | GI50 (NCI-H460 lung) 7.17 µM | GI50 (ACHN renal) 26 µM | GI50 (NCI-H522 lung) 3.79 µM | GI50 (SW-620 colon) 8.22 µM | GI50 (T-47D breast) 2.35 µM | GI50 (K-562 leukemia) 3.28 µM | GI50 (U251 CNS) 12.3 µM | GI50 (HOP-62 NSCLC) 22.1 µM | GI50 (M14 melanoma) 5.83 µM | GI50 (OVCAR-8 ovarian) 16.4 µM | GI50 (SR leukemia) 6.04 µM | GI50 (SN12C renal) 28.5 µM | GI50 (SNB-75 CNS) 3.54 µM | GI50 (A498 renal) 28.1 µM | GI50 (UO-31 renal) 11.3 µM | GI50 (MDA-MB-231 breast) 16.2 µM | GI50 (NCI-H226 lung) 4.46 µM | GI50 (MCF7 breast) 3.26 µM
8.09 µM: TGI (MDA-MB-468 breast)
48.3 µM: TGI (NCI/ADR-RES ovarian)
62.7 µM: TGI (SNB-75 CNS)
6.52 µM: TGI (BT-549 breast)
5.79 µM: TGI (SK-MEL-5 melanoma)
11.2 µM: TGI (T-47D breast)
60.4 µM: TGI (786-0 renal)
82.5 µM: TGI (RXF 393 renal)
25.2 µM: TGI (HL-60(TB) leukemia)
17.5 µM: TGI (RPMI-8226 leukemia)
69.9 µM: TGI (PC-3 prostate)
29.7 µM: TGI (NCI-H23 lung)
